Measurements from PubChem BioAssay (NCI).
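These data come from cells grown in 96-well plates and exposed to compound for 48 hours at five concentrations. Here, GI50 denotes the concentration required for 50% inhibition of growth. TGI is the concentration that stops growth completely.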

How the values were obtained:
Assay in all cases: inhibition of tumour cell growth, NCI panel, 48 h
786-0 renal = test system: 786-0 renal
A498 renal = test system: A498 renal
A549 NSCLC = test system: A549 NSCLC
ACHN renal = test system: ACHN renal
BT-549 breast = test system: BT-549 breast
CAKI-1 renal = test system: CAKI-1 renal
CCRF-CEM leukemia = test system: CCRF-CEM leukemia
COLO 205 colon = test system: COLO 205 colon
DU-145 prostate = test system: DU-145 prostate
EKVX NSCLC = test system: EKVX NSCLC
HCC-2998 colon = test system: HCC-2998 colon
HCT-116 colon = test system: HCT-116 colon
HCT-15 colon = test system: HCT-15 colon
HL-60(TB) leukemia = test system: HL-60(TB) leukemia
HOP-62 NSCLC = test system: HOP-62 NSCLC
HOP-92 NSCLC = test system: HOP-92 NSCLC
HS 578T breast = test system: HS 578T breast
HT29 colon = test system: HT29 colon
IGROV1 ovarian = test system: IGROV1 ovarian
K-562 leukemia = test system: K-562 leukemia
KM12 colon = test system: KM12 colon
LOX IMVI melanoma = test system: LOX IMVI melanoma
M14 melanoma = test system: M14 melanoma
MALME-3M melanoma = test system: MALME-3M melanoma
MCF7 breast = test system: MCF7 breast
MDA-MB-231 breast = test system: MDA-MB-231 breast
MDA-MB-435 = test system: MDA-MB-435
MDA-MB-468 breast = test system: MDA-MB-468 breast
MOLT-4 leukemia = test system: MOLT-4 leukemia
NCI-H226 lung = test system: NCI-H226 lung
NCI-H23 lung = test system: NCI-H23 lung
NCI-H460 lung = test system: NCI-H460 lung
NCI-H522 lung = test system: NCI-H522 lung
NCI/ADR-RES ovarian = test system: NCI/ADR-RES ovarian
OVCAR-3 ovarian = test system: OVCAR-3 ovarian
OVCAR-4 ovarian = test system: OVCAR-4 ovarian
OVCAR-5 ovarian = test system: OVCAR-5 ovarian
OVCAR-8 ovarian = test system: OVCAR-8 ovarian
PC-3 prostate = test system: PC-3 prostate
RPMI-8226 leukemia = test system: RPMI-8226 leukemia
RXF 393 renal = test system: RXF 393 renal
SF-268 CNS = test system: SF-268 CNS
SF-295 CNS = test system: SF-295 CNS
SF-539 CNS = test system: SF-539 CNS
SK-MEL-2 melanoma = test system: SK-MEL-2 melanoma
SK-MEL-28 melanoma = test system: SK-MEL-28 melanoma
SK-MEL-5 melanoma = test system: SK-MEL-5 melanoma
SK-OV-3 ovarian = test system: SK-OV-3 ovarian
SN12C renal = test system: SN12C renal
SNB-19 CNS = test system: SNB-19 CNS
SNB-75 CNS = test system: SNB-75 CNS
SR leukemia = test system: SR leukemia
SW-620 colon = test system: SW-620 colon
T-47D breast = test system: T-47D breast
TK-10 renal = test system: TK-10 renal
U251 CNS = test system: U251 CNS
UACC-257 melanoma = test system: UACC-257 melanoma
UACC-62 melanoma = test system: UACC-62 melanoma
UO-31 renal = test system: UO-31 renal

## COc1cc2c(c(OC)c1OC)C(=O)CC(c1cccc(NC(=O)c3cccc([N+](=O)[O-])c3)c1)O2 (stereo not drawn)
786-0 renal
  GI50: 47.9 µM
  TGI: > 100 µM
A498 renal
  GI50: 67.4 µM
  TGI: > 100 µM
A549 NSCLC
  GI50: 21.7 µM
  TGI: > 100 µM
ACHN renal
  GI50: 21.5 µM
  TGI: > 100 µM
BT-549 breast
  GI50: 5 µM
  TGI: 57.7 µM
CAKI-1 renal
  GI50: 6.66 µM
  TGI: > 100 µM
CCRF-CEM leukemia
  GI50: 3.44 µM
  TGI: > 100 µM
COLO 205 colon
  GI50: 28 µM
  TGI: > 100 µM
DU-145 prostate
  GI50: 21.5 µM
  TGI: > 100 µM
EKVX NSCLC
  GI50: > 100 µM
  TGI: > 100 µM
HCC-2998 colon
  GI50: 55.1 µM
  TGI: > 100 µM
HCT-116 colon
  GI50: 9.24 µM
  TGI: > 100 µM
HCT-15 colon
  GI50: 6.57 µM
  TGI: > 100 µM
HL-60(TB) leukemia
  GI50: 3.84 µM
  TGI: 29.1 µM
HOP-62 NSCLC
  GI50: 98.7 µM
  TGI: > 100 µM
HOP-92 NSCLC
  GI50: 4.29 µM
  TGI: > 100 µM
HS 578T breast
  GI50: 7.29 µM
  TGI: > 100 µM
HT29 colon
  GI50: 26.8 µM
  TGI: > 100 µM
IGROV1 ovarian
  GI50: 18.6 µM
  TGI: > 100 µM
K-562 leukemia
  GI50: 6.03 µM
  TGI: > 100 µM
KM12 colon
  GI50: 3.39 µM
  TGI: > 100 µM
LOX IMVI melanoma
  GI50: 13.9 µM
  TGI: > 100 µM
M14 melanoma
  GI50: 19.2 µM
  TGI: > 100 µM
MALME-3M melanoma
  GI50: 10.1 µM
  TGI: > 100 µM
MCF7 breast
  GI50: 6.99 µM
  TGI: > 100 µM
MDA-MB-231 breast
  GI50: 18.8 µM
  TGI: > 100 µM
MDA-MB-435
  GI50: 4.3 µM
  TGI: 21.5 µM
MDA-MB-468 breast
  GI50: 2.07 µM
  TGI: 8.94 µM
MOLT-4 leukemia
  GI50: 3.93 µM
  TGI: > 100 µM
NCI-H226 lung
  GI50: 5.77 µM
  TGI: > 100 µM
NCI-H23 lung
  GI50: 32.8 µM
  TGI: > 100 µM
NCI-H460 lung
  GI50: 17.2 µM
  TGI: > 100 µM
NCI-H522 lung
  GI50: 4.65 µM
  TGI: 49.8 µM
NCI/ADR-RES ovarian
  GI50: 4.88 µM
  TGI: > 100 µM
OVCAR-3 ovarian
  GI50: 9.49 µM
  TGI: > 100 µM
OVCAR-4 ovarian
  GI50: 7.98 µM
  TGI: > 100 µM
OVCAR-5 ovarian
  GI50: 74.6 µM
  TGI: > 100 µM
OVCAR-8 ovarian
  GI50: 4.62 µM
  TGI: > 100 µM
PC-3 prostate
  GI50: 4.66 µM
  TGI: > 100 µM
RPMI-8226 leukemia
  GI50: 3.24 µM
  TGI: 48.6 µM
RXF 393 renal
  GI50: 3.62 µM
  TGI: > 100 µM
SF-268 CNS
  GI50: 18.5 µM
  TGI: > 100 µM
SF-295 CNS
  GI50: 18.7 µM
  TGI: > 100 µM
SF-539 CNS
  GI50: 29.3 µM
  TGI: > 100 µM
SK-MEL-2 melanoma
  GI50: 7.49 µM
  TGI: 48.8 µM
SK-MEL-28 melanoma
  GI50: 35.2 µM
  TGI: > 100 µM
SK-MEL-5 melanoma
  GI50: 6.3 µM
  TGI: 46.7 µM
SK-OV-3 ovarian
  GI50: > 100 µM
  TGI: > 100 µM
SN12C renal
  GI50: 11.2 µM
  TGI: > 100 µM
SNB-19 CNS
  GI50: 36.9 µM
  TGI: > 100 µM
SNB-75 CNS
  GI50: 7.73 µM
  TGI: > 100 µM
SR leukemia
  GI50: 3.15 µM
  TGI: > 100 µM
SW-620 colon
  GI50: 10.9 µM
  TGI: > 100 µM
T-47D breast
  GI50: 3.74 µM
  TGI: > 100 µM
TK-10 renal
  GI50: 51.6 µM
  TGI: > 100 µM
U251 CNS
  GI50: 20.1 µM
  TGI: > 100 µM
UACC-257 melanoma
  GI50: 19.5 µM
  TGI: > 100 µM
UACC-62 melanoma
  GI50: 4.07 µM
  TGI: 65.4 µM
UO-31 renal
  GI50: 4.79 µM
  TGI: > 100 µM
